One data set concerns the target N-type calcium channels (Homo sapiens, UniProt Q00975). The conditions noted are these: cited from earlier work.
In a further data set the test system is animal models of stroke. Particulars: applied before or 1 hour after a stroke; cited from earlier work.
For data set [1], the system named is rats with status epilepticus induced by the RLDP procedure. Description: Elevated plus maze (exploratory behaviour) at 8 weeks post-SE. It counts as in vivo, rat. The conditions noted are these: administered 3 hours post-SE, 5 minutes on maze. The method, then:
(§1) We investigated possible behavioral effects of 60 min SE induced with the RLDP procedure. Visual-spatial memory was investigated with the Morris water maze (MWM) at 8 weeks post-SE to detect chronic cognitive impairment. The MWM is of particular usefulness with studies involving therapeutic agents, since the severity of neurodegeneration in the anterior CA1 region is strongly correlated with performance (escape latency) (Clasussen et al, 2005). […] All groups contained at least 6 animals.
The elevated plus maze is used to investigate exploratory behaviour. At 8 weeks post-SE, animals were placed on the elevated plus maze for 5 minutes and videotaped. […] Furthermore, SE animals had reduced frequency of lookouts into the open arm and rearing episodes when compared to controls (FIGS. 12 E & F).

The subject of data set [2] is male Wistar rats with pilocarpine-induced status epilepticus. Description: Neuron loss (NeuN-positive cell counts) after status epilepticus in the lithium-pilocarpine rat model.
Description: Male Wistar rats between 350 to 400 grams were pretreated with lithium chloride (ip; 3 mEq/kg) 17 to 24 hours before systemic injection of the chemoconvulsant pilocarpine. Pilocarpine (ip; 10 mg/kg) was administered every 30 minutes until onset of status epilepticus (SE), which was defined as a loss of consciousness and continuous overt seizure activity. […] Rats generally developed SE shortly thereafter. […] SE was terminated at 1, 3 and 5 hours following onset of SE with diazepam (ip; 4 mg/kg).
Animals were anaesthetized with ketamine and Romptum, and transcardially perfused with paraformaldehyde (PFA; 4% in 0.1M phosphate buffer, pH 7.4) 2 weeks after SE induction. Brains were removed, post-fixed overnight in PFA, and then equilibrated in 30% sucrose in PBS. Brains were then frozen at −35° C. in methylbutane and stored until further use at −70° C. in scintillation vials containing frozen 30% sucrose in PBS to prevent freezer drying. The brains were coronally sectioned at 40 μm using a freezing microtome and stored at −20° C. in 24-well plates containing antifreeze solution (15% glucose, 30% ethylene glycol, 50 mMol phosphate buffer; pH 7.4).
For each animal, neuronal cells were quantified by immunohistochemical staining with NeuN, a neuronal cell specific antibody.
Data set [3] deals with rats with status epilepticus induced by the RLDP procedure. Description: Morris water maze (visual-spatial memory) at 8 weeks post-SE. It counts as in vivo, rat. The conditions noted are these: administered 3 hours post-SE. The procedure:
as §1
In our study animals were trained on the MWM task for 14 consecutive days, with 6 trials completed daily. […] No SE animals, however, learned the task within 6 consecutive days, with no further improvement in escape latency thereafter.

Data set [4] deals with male Wistar rats with pilocarpine-induced status epilepticus. In words: Lateral ventricle size after SE, Nissl (cresyl violet) stained brain sections. It counts as in vivo, rat. The conditions noted are these: treated at 3 hours post-SE (0.3 and 3 nmol/gm); 14 days post-SE. The method, then:
Following pilocarpine and Tat-NR2B9c administration, and fixing of brain sections, as described above, every 6th section was used for Niss1 staining with cresyl violet. Sections were mounted and allowed to air dry on gelatin coated slides. The sections were rehydrated in an alcohol series at 100%, 95%, 70%, and 50% each for 5 minutes. The sections are then placed in water for 1 minute, followed by the Cresyl Violet Stain for 20 to 30 minutes. Sections are rinsed (30 seconds×2) in water, and dehydrated in an alcohol series at 50% for 5 minutes (or less), 70% for 5 minutes (or less), 95% for 5 minutes (or less), 100% for 5 minutes (or less), and 100% for 5 minutes (or less). Differentiation occurs maximally at the 50% and 70% alcohol gradients. Sections were cleared in xylene for 5 minutes and coverslipped with Permount, and viewed, e.g., under 40× magnification.

The conditions of data set [5]: stroke indication; cited from earlier work.

The values that follow come from patent publication US9161965B2, “Treatment for epilepsy” (NoNO Inc., priority 2008, dated 2015).

Entries after “also recorded” stand apart in the source; their conditions may differ.

N-type calcium channels, sequence (Q00975 whole entry): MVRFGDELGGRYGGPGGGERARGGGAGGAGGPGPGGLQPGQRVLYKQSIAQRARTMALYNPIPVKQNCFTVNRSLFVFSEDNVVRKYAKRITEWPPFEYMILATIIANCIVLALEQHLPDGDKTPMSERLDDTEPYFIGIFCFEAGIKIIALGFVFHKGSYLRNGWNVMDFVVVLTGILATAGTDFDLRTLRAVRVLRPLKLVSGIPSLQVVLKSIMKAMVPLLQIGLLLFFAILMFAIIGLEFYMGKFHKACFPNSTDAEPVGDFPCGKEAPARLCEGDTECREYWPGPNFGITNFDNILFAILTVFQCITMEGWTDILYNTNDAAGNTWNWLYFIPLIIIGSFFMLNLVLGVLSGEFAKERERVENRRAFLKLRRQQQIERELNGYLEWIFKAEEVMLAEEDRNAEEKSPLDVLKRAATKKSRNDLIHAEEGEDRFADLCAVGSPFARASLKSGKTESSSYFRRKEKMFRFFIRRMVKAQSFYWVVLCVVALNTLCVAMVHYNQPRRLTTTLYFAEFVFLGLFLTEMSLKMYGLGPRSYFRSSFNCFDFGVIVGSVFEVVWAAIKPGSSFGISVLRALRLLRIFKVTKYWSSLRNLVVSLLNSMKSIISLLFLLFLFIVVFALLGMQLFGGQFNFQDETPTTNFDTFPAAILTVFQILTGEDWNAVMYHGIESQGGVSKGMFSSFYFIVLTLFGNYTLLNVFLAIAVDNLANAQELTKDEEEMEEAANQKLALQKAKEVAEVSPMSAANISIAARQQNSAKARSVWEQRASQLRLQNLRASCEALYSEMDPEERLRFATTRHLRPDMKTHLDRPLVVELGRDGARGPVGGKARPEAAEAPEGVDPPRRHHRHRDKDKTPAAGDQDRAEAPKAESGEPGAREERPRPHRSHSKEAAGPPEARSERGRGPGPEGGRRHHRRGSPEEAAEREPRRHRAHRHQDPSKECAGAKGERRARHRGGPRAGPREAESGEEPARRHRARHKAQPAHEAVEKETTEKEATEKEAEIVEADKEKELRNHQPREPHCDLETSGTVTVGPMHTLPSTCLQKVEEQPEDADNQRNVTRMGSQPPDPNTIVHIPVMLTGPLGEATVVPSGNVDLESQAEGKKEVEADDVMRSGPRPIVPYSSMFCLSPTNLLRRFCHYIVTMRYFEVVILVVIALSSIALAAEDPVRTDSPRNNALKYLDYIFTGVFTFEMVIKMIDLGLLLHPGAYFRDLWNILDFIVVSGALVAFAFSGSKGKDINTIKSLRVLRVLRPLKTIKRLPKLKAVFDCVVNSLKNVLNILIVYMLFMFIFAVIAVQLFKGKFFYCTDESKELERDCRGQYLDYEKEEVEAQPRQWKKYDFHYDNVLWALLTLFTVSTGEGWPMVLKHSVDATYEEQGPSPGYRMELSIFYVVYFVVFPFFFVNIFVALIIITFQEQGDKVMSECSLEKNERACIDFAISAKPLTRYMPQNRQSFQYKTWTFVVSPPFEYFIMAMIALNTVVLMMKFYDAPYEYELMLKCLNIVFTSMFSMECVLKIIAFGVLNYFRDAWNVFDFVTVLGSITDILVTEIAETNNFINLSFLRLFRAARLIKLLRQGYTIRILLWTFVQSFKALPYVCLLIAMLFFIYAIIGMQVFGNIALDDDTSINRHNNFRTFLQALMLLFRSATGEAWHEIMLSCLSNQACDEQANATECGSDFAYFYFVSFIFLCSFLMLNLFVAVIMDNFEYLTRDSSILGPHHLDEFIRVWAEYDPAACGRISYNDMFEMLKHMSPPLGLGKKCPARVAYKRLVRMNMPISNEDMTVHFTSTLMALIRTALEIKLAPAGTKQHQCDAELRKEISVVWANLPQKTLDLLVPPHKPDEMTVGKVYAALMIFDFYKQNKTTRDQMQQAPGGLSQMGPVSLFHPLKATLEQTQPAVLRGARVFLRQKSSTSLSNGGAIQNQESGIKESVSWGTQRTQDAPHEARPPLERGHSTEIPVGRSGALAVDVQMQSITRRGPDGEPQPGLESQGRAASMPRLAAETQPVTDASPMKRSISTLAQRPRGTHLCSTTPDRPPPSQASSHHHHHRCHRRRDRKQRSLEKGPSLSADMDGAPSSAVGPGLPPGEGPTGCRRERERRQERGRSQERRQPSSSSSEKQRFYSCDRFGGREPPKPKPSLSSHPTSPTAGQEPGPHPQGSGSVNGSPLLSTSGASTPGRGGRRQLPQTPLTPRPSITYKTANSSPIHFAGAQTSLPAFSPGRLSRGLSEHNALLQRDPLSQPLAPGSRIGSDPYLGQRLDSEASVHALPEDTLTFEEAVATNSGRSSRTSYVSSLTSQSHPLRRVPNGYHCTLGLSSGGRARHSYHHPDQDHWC

Turning to YGRKKRRQRRR [standard tat peptide], in the data set with N-type calcium channels, the “Binding to and inhibition of N-type calcium channels” value is “binds to and inhibits N-type calcium channels”.

On to “YGRKKRRQRRRKLSSIESDV (synthetic chimeric PDZ-binding ligand (PL) motif active peptide linked to HIV TAT internalization peptide, Tat-NR2B9c-(SDV))”, for which, in the data set on animal models of stroke, the “Neuroprotection in animal models of stroke” value is listed as “highly neuroprotective”. In data set [1], the “Effects of SE on exploratory behaviour / cognitive impairment, elevated plus maze” value is recorded as “decreased these effects of SE on exploratory behavior; also recorded: reduces the cognitive impairment caused by status epilepticus”. Moreover, the “Neuroprotection / neuron loss (NeuN-positive cells), peptide administered during status epilepticus” value in data set [2] (administered 10 minutes following initiation of SE, 0.3, 3 and 9 nmol/gm, 7 days after SE) was “did not decrease neuron loss; also recorded: comparable to neuron loss in untreated rats; also recorded: not during”. Besides, the “NeuN-immunostaining of coronal sections of the dorsal hippocampus (histochemical visualization)” value in data set [2] (administered 3 hours following the insult, 2.5x and 40x magnification) is “increased NeuN-immunostaining; also recorded: This effect was reversed”. Further, the “Neuroprotection / neuron loss (NeuN-positive cells), anterior (dorsal) CA1 region of the hippocampus” value in data set [2] (administered via femoral vein 3 hours after termination of SE, 0.3 or 3 nmol/gm, 14 days recovery) was “rescued neuron loss in a dose-dependent manner; also recorded: especially protective; also recorded: conferred neuroprotection; also recorded: neuroprotective in the anterior CA1 region of the hippocampus; also recorded: neuroprotective when administered after; also recorded: dose-dependent neuroprotection”. In data set [2] (compared to saline-treated animals), the “Number of surviving neuronal cells near the subicular border of the CA1 region” value was “increased the number of surviving neuronal cells”. In addition, in data set [2] (rat, in vivo), the “Neuroprotection in the CA4 region” value was “confers neuroprotection”. Further, in data set [3], the “Escape latency performance, Morris water maze” value was “improves escape latency performance, especially during the initial 5 days of acquisition learning”. Besides, the “Size of lateral ventricles following SE” value in data set [4] is recorded as “reduced them to the size found in rats who had not been given pilocarpine; also recorded: dramatic reduction of lateral ventricle size; also recorded: noticeably smaller lateral ventricles”. In addition, the “Adverse events / side effects in phase I clinical trials” value in data set [5] is on record as “without serious adverse events”.
